Columns and labels:
Rev-Erb alpha [1] = target: T1, Rev-Erb alpha (Homo sapiens, UniProt P20393); experiment: TR-FRET (HTRF) assay of Rev-Erb alpha LBD with NCoR peptide ID1; format: biochemical; details: cell-free, Rev-Erb alpha LBD His 20 nM, NCoR ID1 30 nM
T1 sequence (P20393 284-614 limits assumed): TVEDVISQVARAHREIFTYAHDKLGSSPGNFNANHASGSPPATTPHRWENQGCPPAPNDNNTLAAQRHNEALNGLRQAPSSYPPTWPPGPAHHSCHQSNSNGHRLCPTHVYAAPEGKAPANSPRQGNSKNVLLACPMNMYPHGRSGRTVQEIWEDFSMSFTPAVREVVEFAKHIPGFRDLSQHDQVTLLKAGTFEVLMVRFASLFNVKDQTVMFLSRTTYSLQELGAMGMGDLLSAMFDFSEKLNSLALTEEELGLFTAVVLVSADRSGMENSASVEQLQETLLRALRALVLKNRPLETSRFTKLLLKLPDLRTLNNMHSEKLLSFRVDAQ
Method: Recombinant histidine-tagged Rev-Erb alpha ligand binding domain (LBD; SEQ ID NO: 1) and NCoR peptide ID1 (SEQ ID NO: 2) were tagged with fluorophores. Histidine-tagged Rev-Erb alpha LBD protein was set up in a one to one ratio of 20 nM of His D2 (Cis Bio International 61HSDLB). The NCoR peptide (ID1) was prepared in-house. We used a concentration of 30 nM NCoR and 10 nM Terbium-labeled streptavidin (Cis Bio International 610SATLB).
The buffer for this assay comprised PBS pH 7.2, NaH2P04 at 4 g/L, Na2HP04 at 27 g/L and NaCl at 9 g/l in deionized water. Before using the buffer in the assay, a mixture comprising 1 mM of DTT, 2 mM of CHAPS, 1 mM of EDTA and 0.1% BSA fatty acid free was added to the appropriate amount of buffer. The protein mixture comprising recombinant Rev-Erb alpha LBD His (20 nM), the NCoR ID1 (30 nM) and their respective fluorophores were added to each well of a 384-well plate in a volume 18 μl. The compounds to analyze were diluted in PBS 10% DMSO and was added in a volume of 2 μL in a well. The final mixture volume was 20 μL and the mixture was allowed equilibrate for 2 hours at room temperature. Fluorescence intensity was then counted on the TECAN Genios Pro as a ratio of the fluorescence measured at 665 nm and that measured at 620 nm obtained in the absence of the compound (buffer only) or with the compound. Four experiments were carried out for each compound.
Each compound has been tested at 6 different concentrations to depict a dose-effect enabling the measure of biochemical parameters such as EC50 and TOP activation (%).
The Homogenous Time Resolved Fluorescence (HTRF) assay allows studying the ability of compounds according to the invention to activate Rev-Erb alpha and thus modulate the interaction with its corepressor. The molecular interactions between these bio-molecules are assessed in a cell-free assay by coupling each partner with a fluorescent label and detecting the level of energy transfer. This energy transfer occurs when the distance between the donor (SA Terbium complex) and the acceptor (D2) is small enough.
The ability of compounds according to the invention of activating Rev-Erb alpha was assessed in the described acellular assay. EC50 and TOP activation were measured.

Rev-Erb alpha [2] = target: T1, Rev-Erb alpha; experiment: M2H (mammalian two-hybrid) cellular activation assay of Rev-Erb alpha; format: cell-based; details: M2H assay, HEK293 cells, Gal4-Rev-Erb alpha / VP16-NCoR, luciferase reporter
How it was run: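 Six-point dose-response, 18 h, 37 °C, serum-free, in HEK293 cells carrying a Gal4-RE luciferase reporter with Gal4-Rev-Erb alpha or beta plus VP16-NCoR (corepressor interaction readout). EC50 and TOP activation (%) derived from luminescence across four experiments.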

Row | SMILES | EC50 (Rev-Erb alpha [1]) [µM] | EC50 (Rev-Erb alpha [2]) [µM] | melting point [°C]
1 | Clc1nnc2ccc(Cc3ccccc3-c3ccccc3)nn12 [Cpd.4-9, 6-(biphenyl-2-ylmethyl)-3-chloro-[1,2,4]triazolo[4,3-b]pyridazine] | 0.1 to 1 | 1 to 6 | –
2 | O=C(c1ccccc1)c1ccccc1Oc1ccc2nnc(Cl)n2n1 [Cpd.4-11, (2-(3-chloro-[1,2,4]triazolo[4,3-b]pyridazin-6-yloxy)phenyl)(phenyl)methanone] | 1.1 to 6 | 1 to 6 | 137.9
3 | FC(F)(F)c1nnc2ccc(Cc3ccccc3-c3ccccc3)nn12 [Cpd.4-12, 6-(biphenyl-2-ylmethyl)-3-(trifluoromethyl)-[1,2,4]triazolo[4,3-b]pyridazine] | 1.1 to 6 | 1 to 6 | 117.4
4 | Oc1cccc(-c2ccc(C(F)(F)F)cc2Oc2ccc3nnc(C(F)(F)F)n3n2)c1 [Cpd.4-138, 3-(trifluoromethyl)-6-(3′-hydroxy-4-(trifluoromethyl)biphenyl-2-yloxy)-[1,2,4]triazolo[4,3-b]pyridazine] | – | 1 to 6 | 195
5 | Cc1cc2nnc(C(F)(F)F)n2nc1Oc1cc(C(F)(F)F)ccc1-c1cncnc1 [Cpd.5-61, 7-methyl-6-(2-(pyrimidin-5-yl)-5-(trifluoromethyl)phenoxy)-3-(trifluoromethyl)-[1,2,4]triazolo[4,3-b]pyridazine] | – | 1 to 6 | 174 to 179
6 | Cc1ccc(-c2ccc(C(F)(F)F)cc2Oc2ccc3nnc(Cl)n3n2)cn1 [Cpd.4-196, 3-chloro-6-(2-(6-methylpyridin-3-yl)-5-(trifluoromethyl)phenoxy)-[1,2,4]triazolo[4,3-b]pyridazine] | – | 1 to 6 | 212 to 214
7 | COc1ncc(-c2cc(Cl)ccc2Oc2cc(C)c3nnc(Cl)n3n2)cn1 [Cpd.5-55, 3-chloro-6-(4-chloro-2-(2-methoxypyrimidin-5-yl)phenoxy)-8-methyl-[1,2,4]triazolo[4,3-b]pyridazine] | – | 1 to 6 | 170 to 172
8 | N#Cc1ccc(Oc2ccc3nnc(Cl)n3n2)c(-c2ccccc2)c1 [Cpd.4-154, 3-chloro-6-(5-cyanobiphenyl-2-yloxy)-[1,2,4]triazolo[4,3-b]pyridazine] | – | 1 to 6 | 208 to 209
9 | Clc1nnc2ccc(Oc3ccc(CNCC4CCCCC4)cc3-c3ccccc3)nn12 [Cpd.4-162, 3-chloro-6-(5-((cyclohexylmethyl)aminomethyl)biphenyl-2-yloxy)-[1,2,4]triazolo[4,3-b]pyridazine] | – | 1 to 6 | 53.4 to 55.7
10 | COc1ncccc1-c1ccc(C(F)(F)F)cc1Oc1cc(C)c2nnc(Cl)n2n1 [Cpd.5-23, 3-chloro-6-(2-(2-methoxypyridin-3-yl)-5-(trifluoromethyl)phenoxy)-8-methyl-[1,2,4]triazolo[4,3-b]pyridazine] | – | 1 to 6 | 156 to 158
11 | CCc1nnc2c(C)cc(Oc3cc(C(F)(F)F)ccc3-c3cncnc3)nn12 [Cpd.5-48, 3-ethyl-8-methyl-6-(2-(pyrimidin-5-yl)-5-(trifluoromethyl)phenoxy)-[1,2,4]triazolo[4,3-b]pyridazine] | – | 1 to 6 | 182 to 184

The remaining lines, values ahead:

Row | EC50 (Rev-Erb alpha [1]) [µM] | EC50 (Rev-Erb alpha [2]) [µM] | melting point [°C] | SMILES
12 | 0.1 to 1 | 0.1 to 1 | 115 | FC(F)(F)c1nnc2ccc(Oc3cccc(Cc4ccccc4)c3)nn12 [Cpd.3-5, 6-(3-benzylphenoxy)-3-(trifluoromethyl)-[1,2,4]triazolo[4,3-b]pyridazine]
13 | 0.1 to 1 | 1 to 6 | 112.1 | O=C(c1ccccc1)c1ccccc1Oc1ccc2nnc(C(F)(F)F)n2n1 [Cpd.4-8, (2-(3-(trifluoromethyl)-[1,2,4]triazolo[4,3-b]pyridazin-6-yloxy)phenyl)(phenyl)methanone]
14 | 0.1 to 1 | 1 to 6 | 128.8 | FC(F)(F)c1nnc2ccc(Oc3ccccc3Cc3ccccc3)nn12 [Cpd.4-5, 6-(2-benzylphenoxy)-3-(trifluoromethyl)-[1,2,4]triazolo[4,3-b]pyridazine]
15 | < 0.1 | 0.1 to 1 | 148 | O=C(c1ccccc1)c1cccc(Oc2ccc3nnc(Cl)n3n2)c1 [Cpd.3-2, (3-(3-chloro-[1,2,4]triazolo[4,3-b]pyridazin-6-yloxy)phenyl)(phenyl)methanone]
16 | 1.1 to 6 | 0.1 to 1 | 140.2 | FC(F)(F)c1nnc2ccc(Oc3cccc(-c4ccccc4)c3)nn12 [Cpd.3-3, 6-(biphenyl-3-yloxy)-3-(trifluoromethyl)-[1,2,4]triazolo[4,3-b]pyridazine]
17 | 1.1 to 6 | < 0.1 | 163 | Clc1nnc2ccc(Oc3ccccc3-c3ccccc3)nn12 [Cpd.4-1, 6-(biphenyl-2-yloxy)-3-chloro-[1,2,4]triazolo[4,3-b]pyridazine]
18 | < 0.1 | 0.1 to 1 | 97.3 | Fc1cccc(-c2ccccc2Oc2ccc3nnc(Cl)n3n2)c1 [Cpd.4-3, 6-(3′-fluoro-biphenyl-2-yloxy)-3-chloro-[1,2,4]triazolo[4,3-b]pyridazine]
19 | < 0.1 | 0.1 to 1 | 128.1 | COc1ccc(-c2ccccc2)c(Oc2ccc3nnc(Cl)n3n2)c1 [Cpd.4-6, 6-(4-methoxy-biphenyl-2-yloxy)-3-chloro-[1,2,4]triazolo[4,3-b]pyridazine]
20 | 0.1 to 1 | 0.1 to 1 | 94.4 | O=C(c1ccccc1)c1cccc(Oc2ccc3nnc(C(F)(F)F)n3n2)c1 [Cpd.3-4, (3-(3-(trifluoromethyl)-[1,2,4]triazolo[4,3-b]pyridazin-6-yloxy)phenyl)(phenyl)methanone]
21 | 0.1 to 1 | 0.1 to 1 | – | Clc1nnc2ccc(Oc3cccc(-c4ccccc4)c3)nn12 [Cpd.3-1, 6-(biphenyl-3-yloxy)-3-chloro-[1,2,4]triazolo[4,3-b]pyridazine]
22 | 0.1 to 1 | 0.1 to 1 | 113.7 | Clc1nnc2ccc(Oc3ccccc3Cc3ccccc3)nn12 [Cpd.4-4, 6-(2-benzylphenoxy)-3-chloro-[1,2,4]triazolo[4,3-b]pyridazine]
23 | – | 0.1 to 1 | 190 to 192 | FC(F)(F)c1ccc(-c2ccccc2)c(Oc2nn3c(Cl)nnc3cc2-c2ccccc2)c1 [Cpd.5-5, 3-chloro-7-phenyl-6-(4-trifluoromethyl-biphenyl-2-yloxy)-[1,2,4]triazolo[4,3-b]pyridazine]
24 | – | 0.1 to 1 | 171.7 | COc1ccc(-c2ccc(F)cc2)c(Oc2ccc3nnc(Cl)n3n2)c1 [Cpd.4-34, 6-(4′-fluoro-4-methoxy-biphenyl-2-yloxy)-3-chloro-[1,2,4]triazolo[4,3-b]pyridazine]
25 | – | 0.1 to 1 | 129.7 | Fc1ccc(-c2ccc(F)cc2Oc2ccc3nnc(Cl)n3n2)cc1 [Cpd.4-31, 6-(4′-fluoro-4-fluoro-biphenyl-2-yloxy)-3-chloro-[1,2,4]triazolo[4,3-b]pyridazine]
26 | – | 0.1 to 1 | 128.6 | Fc1ccccc1-c1cccc(Oc2ccc3nnc(Cl)n3n2)c1 [Cpd.3-10, 6-(2′-fluoro-biphenyl-3-yloxy)-3-chloro-[1,2,4]triazolo[4,3-b]pyridazine]
27 | – | 0.1 to 1 | 138.1 | COc1ccc(-c2ccccc2Oc2ccc3nnc(Cl)n3n2)cc1 [Cpd.4-22, 6-(4′-methoxy-biphenyl-2-yloxy)-3-chloro-[1,2,4]triazolo[4,3-b]pyridazine]
28 | – | 0.1 to 1 | 147.8 | Fc1ccc(Oc2ccc3nnc(Cl)n3n2)c(-c2ccc(F)c(F)c2)c1 [Cpd.4-115, 3-chloro-6-(5,3′,4′-trifluorobiphenyl-2-yloxy)-[1,2,4]triazolo[4,3-b]pyridazine]

— US9586963B2 (GENFIT, priority 2011, dated 2017)
